Measurements as given in PMC12022909, “A Multicomponent Reaction-Based Platform Opens New Avenues in Aryl Hydrocarbon Receptor Modulation” (ACS Central Science, 2025).
Entries after “also recorded” stand apart in the source; their conditions may differ.

Assays:
[1] = molecular target: T1, aryl hydrocarbon receptor (AhR) (Homo sapiens, UniProt P35869); assay: AhR/XRE-dependent luciferase reporter gene assay in XRE-HepG2 cells; format: cell-based; conditions: XRE-HepG2 cells, 8 h; unit as in the supplements; read-out: AhR/XRE-dependent luciferase activity EC50
T1 construct: AhR-dependent reporter gene activity was determined in human HepG2 cells stably transfected with an XRE; endogenous in cells; host or cells: XRE-HepG2 (human HepG2 hepatoma cells stably carrying an XRE-luciferase plasmid)
T1 sequence (P35869 11-848): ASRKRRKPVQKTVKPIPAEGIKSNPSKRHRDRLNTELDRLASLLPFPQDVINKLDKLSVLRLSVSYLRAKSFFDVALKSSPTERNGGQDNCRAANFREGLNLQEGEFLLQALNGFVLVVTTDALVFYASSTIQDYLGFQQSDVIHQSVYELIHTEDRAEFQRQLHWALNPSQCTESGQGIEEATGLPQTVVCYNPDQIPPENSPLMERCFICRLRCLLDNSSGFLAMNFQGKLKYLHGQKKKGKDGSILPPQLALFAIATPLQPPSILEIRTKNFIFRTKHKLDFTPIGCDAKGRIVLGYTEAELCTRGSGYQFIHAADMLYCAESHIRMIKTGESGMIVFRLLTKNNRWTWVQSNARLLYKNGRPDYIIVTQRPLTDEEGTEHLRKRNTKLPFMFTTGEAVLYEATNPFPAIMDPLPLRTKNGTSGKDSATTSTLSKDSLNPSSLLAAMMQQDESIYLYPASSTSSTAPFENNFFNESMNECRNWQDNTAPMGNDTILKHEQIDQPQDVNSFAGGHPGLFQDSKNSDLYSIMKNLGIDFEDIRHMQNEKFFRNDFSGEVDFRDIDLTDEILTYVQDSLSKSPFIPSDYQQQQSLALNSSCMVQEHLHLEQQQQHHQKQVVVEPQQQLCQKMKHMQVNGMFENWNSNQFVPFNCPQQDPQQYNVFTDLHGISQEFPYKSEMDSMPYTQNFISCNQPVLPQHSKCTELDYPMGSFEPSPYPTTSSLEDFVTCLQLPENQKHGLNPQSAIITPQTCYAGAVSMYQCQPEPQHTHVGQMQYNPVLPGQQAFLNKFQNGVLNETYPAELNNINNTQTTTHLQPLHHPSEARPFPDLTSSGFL
Description: (f) AhR/XRE-dependent reporter gene activity results (EC50/μM).
Data are shown as mean ± SEM.
The human XRE -HepG2 reporter cell -line was a kind gift of K. Gradin and L. Poellinger (Karolinska Institute, Stockholm,
antibiotic/antimycotic solution, and 0.8 mg/ml G418. All cells were cultivated at 37 °C in a humidified atmosphere containing 5% CO 2.
AhR-dependent reporter gene activity was determined in human HepG2 cells stably transfected with an XRE -harboring luciferase plasmid (XRE-HepG2 cells). […] Luciferase activity was normalized to protein content.

Jurkat cells = assay: Cell viability (Annexin V-APC, flow cytometry) in Jurkat cells; format: cell-based; conditions: 24 h
Description: (§1) A phosphatidylserine exposure was used to determine cell viability. Cells were washed with PBS, pelleted, and then incubated with annexin binding buffer containing Annexin V-APC (Life Technologies) for 15 min in the dark. Then, samples were analyzed by flow cytometry using FACSCanto II and FACSDiva (BD Biosciences, Franklin Lakes, NJ, USA). Data represents the percentage of non - apoptotic cells (Ann -APC-).
(§2) The cytotoxicity of a selection of the synthesized compounds was assessed after 24 hours of treatment in two human cell lines, Jurkat and HEK293T, coming from either tumoral T-cell lymphocytes or non-tumoral embryonic kidney fibroblasts, respectively. […]
(§3) the pro-apoptotic activity was not significant below 10 µM for most compounds in both cell lines, except for 5i, 5k and 5l in both cell lines, as well as 9a in Jurkat and 5e HEK293T cells (Figure S35A-B).
(§4) Moreover, the cytotoxicity of compounds 4d, 5b, 5h, 8, 10, and 12d at a higher concentration (100 µM) was assessed in both cell lines, Jurkat and HEK293T. The cytotoxicity of compounds 5b, 5h, and 12d could not be properly tested as the compounds were not soluble […]
(§5) effects observed for compound 4d in Jurkat cells and compound 8 in HEK293T cells (Figure S35C).
(§6) Figure S35. A) Jurkat and B) HEK293T cells were treated with 1 and 10 µM doses of the corresponding compound for 24 hours. Indicated doses of fluorizoline were used as a positive control of cell death. C) Jurkat and HEK293T cells were treated with 100 µM of the corresponding compound for 24 hours. Viability was measured by flow cytometry, and it is expressed as the mean ± SEM (n = 3) of the percentage of non -apoptotic cells (Ann-APC-). * p < 0.05, ** p < 0.01 *** p < […]
(§7) (1 picture or pasted object on this page, not shown here)

HEK293T cells = assay: Cell viability (Annexin V-APC, flow cytometry) in HEK293T cells; format: cell-based; conditions: 24 h
Description: as §1, §2, §3, §4, §5, §6, §7

AhR = molecular target: T2, AhR (Homo sapiens, UniProt P35869); assay: Western blot of AhR in MCF7 cells; format: cell-based; conditions: 10 µM, 5 h
T2 construct: Degradation of endogenous AhR was further confirmed via Western blotting and global proteomics measurements in cells treated with 12b; host or cells: MCF7
T2 sequence (P35869 11-848): T1 sequence (P35869 11-848)
Description: Figure S30. Agonists induce degradation of AhR.
12b, 12c, and 12d at a concentration of 10 µM for 5h. The numbers on the Blot indicate the signal intensities of the bands relative to the Tubulin bands, normalized to DMSO treatment as quantified with Empiria Studio. […]
Cell culture and treatment […]
MCF7 cells were purchased from ATCC and grown in DMEM with 10% FCS and 1% penicillin/ streptomycin. […]
All cells were cultivated at 37 °C in a humidified atmosphere containing 5% CO 2.
Tapinarof (MedChemExpress, Monmouth Junction, NJ), benzo[a]pyrene (Sigma-Aldrich, Taufkirchen, Germany), TCDD (Amchro, Hattersheim am Main, Germany) and all compounds synthesized in this study were dissolved in dimethyl sulfoxide (DMSO; Roth). […]
Quantitative real-time PCR […]
• CYP1A1: […] (forward (5'>3')); […] (reverse (5'>3')).
• CYP1B1: […] (forward (5'>3')); […] (reverse (5'>3')).
• CCL26: […] (forward (5'>3')); […] (reverse (5'>3')).
• IL-19: […] (forward (5'>3')); […] (reverse (5'>3')).
• CXCL1: […] (forward (5'>3')); […] (reverse (5'>3')).
• β-actin: […] (forward (5'>3')); […] (reverse (5'>3')). […]
The assay was carried out as described earlier. Luciferase activity was normalized to protein content.
SDS-PAGE/Western blot analysis
Cells were lysed in RIPA buffer on ice and subsequently centrifuged for 15 min at 4 °C at maximum speed. Protein samples were separated by 10% and 12% SDS -polyacrylamide gel electrophoresis and blotted onto PVDF (GE Healthcare, Freiburg, Germany) or Nitrocellulose (BioRad #17 04158) membranes. Blots were blocked with 5% skim milk or bovine serum albumin in TBS -Tween-20 (0.1%) for or Intercept® (TBS) Blocking Buffer (LI -COR Biosciences) 1 h at room temperature and subsequently incubated overnight at 4 °C with primary antibodies. Blots were washed and then incubated for 1 h with a 1:5000 dilution of HRP -conjugated secondary antibodies in 5% bovine serum albumin in TBS -Tween-20 (0.1%) or anti-Mouse (Licor, IRDye® 680RD Goat anti -Mouse IgG, 1:10k dilution) or anti-Rabbit secondary antibody (Licor, IRDye® Goat anti -Rabbit IgG, 1:10k dilution) at room temperature. Bands were visualized using WesternBright ECL HRP substrate (Advansta, San Jose, CA) and a C -DiGit Western Blot Scanner (LI -COR Biotechnology, Lincoln, NE) or a Licor Odyssey CLx imager. Primary antibodies used in this study are as follows. AhR (Cat.No. 83200; Cell Signaling Technology, Leiden, The Netherlands). AIP (Cat.No. sc-59730; Santa Cruz Biotechnology, Dallas, TX). Cul4B (Cat.No. abx004735; Abbexa, Houston, TX). GAPDH (Cat.No. 2118; Cell Signaling Technology). Vinculin (Cat.No. 13901, Cell Signaling Technology). α - Tubulin (Abcam, ab7291, 1:10k dilution).
HaCaT-EV and HaCaT-shAhR cells were treated with either vehicle (DMSO) or 10 µM 12d for 0.5 h and 1 h. […]

[2] = Solubility in the growing media during cytotoxicity testing; format: physicochemical; conditions: concentration of 100 µM
Description: as §1, §2, §3, §4, §5, §6, §7

HaCaT cells = assay: UVA phototoxicity, caspase 3 activity in HaCaT cells; format: cell-based, human; conditions: for UVA radiation-induced caspase activity (phototoxicity): HaCaT, 1 h, UVA 5 J/cm2
Description: Irradiation with UVA and caspase 3 activity measurement […]
culture media was exchanged with PBS and the cells were sham or UVA (5 J/cm2) irradiated using the BS-02 irradiation chamber (Opsytec Dr. Gröbel, Ettlingen Germany). Media was added to the cells and after 4 h incubation, caspase 3 activity was measured as described previously.[33] Protein quantification was done with the Bio-Rad DC protein assay kit (Bio-Rad Laboratories, Hercules, CA) according to the manufacturer protocol.
We compared the phototoxic potential of five of our test compounds (8, 10, 5b, 5h, 4b) as well as the FDA-approved AhR activator […]
induced caspase activity at a concentration of 100 nM (Figure S36A). At a 10-fold higher concentration (1 µM) two of the test compounds […]
Figure S36. […] For statistical analysis a two-way ANOVA (Tukey post-hoc) was performed and data are shown as mean ± SEM. (*, p ≤ 0.05). […]

Structure (SMILES) | EC50 [1] [nM] | AhR receptor proteolysis (AhR) | cytotoxicity / pro-apoptotic activity at 100 µM (Jurkat cells) | cytotoxicity / pro-apoptotic activity at 100 µM (HEK293T cells) | solubility in the growing media [2] | overlap between effective and toxic concentrations (HaCaT cells) | UVA radiation-induced caspase activity (phototoxicity) (HaCaT cells; 100 nM) | UVA radiation-induced caspase activity (phototoxicity) (HaCaT cells; 1 µM)
Cn1c2ccccc2c2c(C3=C(O)CC(C)(C)CC3=O)c3c(cc21)c1ccccc1n3C [4d] | 1310 | – | slight cytotoxic effects | minimal pro-apoptotic activity | – | – | – | –
COc1ccc2[nH]cc(-c3c4[nH]c5ccccc5c4cc4[nH]c5ccccc5c34)c2c1 [5a] | 600 | induced receptor proteolysis | – | – | – | – | – | –
Cc1[nH]c2ccccc2c1-c1c2[nH]c3ccc(F)cc3c2cc2[nH]c3ccc(F)cc3c12 [5k] | 2740 | induced receptor proteolysis | – | – | – | – | – | –

The next compounds have a lower EC50 [1] than those just listed; values first:

EC50 [1] [nM] | AhR receptor proteolysis (AhR) | Structure (SMILES) | cytotoxicity / pro-apoptotic activity at 100 µM (Jurkat cells) | cytotoxicity / pro-apoptotic activity at 100 µM (HEK293T cells) | solubility in the growing media [2] | overlap between effective and toxic concentrations (HaCaT cells) | UVA radiation-induced caspase activity (phototoxicity) (HaCaT cells; 100 nM) | UVA radiation-induced caspase activity (phototoxicity) (HaCaT cells; 1 µM)
380 | induced receptor proteolysis | Cn1cc(-c2c3[nH]c4ccccc4c3cc3[nH]c4ccccc4c23)c2ccccc21 [5d] | – | – | – | – | – | –
260 | – | CC(=O)Nc1ccccc1C(=O)c1c2[nH]c3ccccc3c2cc2[nH]c3ccccc3c12 [compound 10] | minimal pro-apoptotic activity | minimal pro-apoptotic activity | slight turbidity | minimal overlap | neither tapinarof nor our 6-ICZ compounds enhanced | did not show any signs of phototoxicity; also recorded: no phototoxicity
